± gives the standard deviation of the averaged measurements.
Key:
Conditions in all cases: exposure time: 72 h
E13 [1] = patient-derived glioblastoma stem cells of classical subtype; assay: surviving fraction (nuclei count normalised to DMSO); higher = more cells surviving (less toxic)
E21 [2] = patient-derived glioblastoma stem cells of mesenchymal subtype; assay: as above
E28 [3] = patient-derived glioblastoma stem cells of classical subtype; assay: as above
E31 [4] = patient-derived glioblastoma stem cells of proneural subtype; assay: as above
E34 [5] = patient-derived glioblastoma stem cells of proneural subtype; assay: as above
E57 [6] = patient-derived glioblastoma stem cells of mesenchymal subtype; assay: as above
FT3469 [7] = normal neural stem cell line; assay: as above
E13 [8] = assay: phenotypic distance (Euclidean, principal components) from DMSO controls (arbitrary units); higher = stronger morphological change
E21 [9] = assay: as above
E28 [10] = assay: as above
E31 [11] = assay: as above
E34 [12] = assay: as above
E57 [13] = assay: as above
FT3469 [14] = assay: as above
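For phenotypic distance (Euclidean, principal components) from DMSO controls in this document: cell Painting imaging in 384-well plates, CellProfiler features reduced to at least 20 principal components, Euclidean distance versus same-plate DMSO vehicle wells (0.1% v/v), median over six images per well.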
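For surviving fraction (nuclei count normalised to DMSO) in this document: nuclei counted by high-content imaging of Hoechst-stained cells in laminin-coated 384-well plates, relative to 0.1% DMSO vehicle wells, with staurosporine as cell-death control.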

O=C(/C=C/c1ccc([N+](=O)[O-])cc1)/C=C1/C(=O)Nc2ccc(F)cc21 [APIO-EE-07] gave a surviving fraction (E13 [1]; 2.7 nM) of 0.978 ± 0.23, a surviving fraction (E13 [1]; 8.2 nM) of 0.955 ± 0.13 and a surviving fraction (E13 [1]; 24.7 nM) of 0.964 ± 0.037. It also gave a surviving fraction (E13 [1]; 74.1 nM) of 1.0673 ± 0.00064, a surviving fraction (E13 [1]; 222.2 nM) of 0.994 ± 0.06 and a surviving fraction (E13 [1]; 666.7 nM) of 0.9741 ± 0.0051. The surviving fraction (E13 [1]; 2000 nM) was 0.841 ± 0.09, the surviving fraction (E21 [2]; 2.7 nM) was 0.996 ± 0.036 and the surviving fraction (E21 [2]; 8.2 nM) was 0.929 ± 0.052. For the same compound, the surviving fraction (E21 [2]; 24.7 nM) was 1.04 ± 0.019, the surviving fraction (E21 [2]; 74.1 nM) was 0.991 ± 0.0045 and the surviving fraction (E21 [2]; 222.2 nM) was 0.989 ± 0.067. It also gave a surviving fraction (E21 [2]; 666.7 nM) of 1.03 ± 0.03, a surviving fraction (E21 [2]; 2000 nM) of 0.642 ± 0.13 and a surviving fraction (E28 [3]; 2.7 nM) of 1.1 ± 0.048. It also gave a surviving fraction (E28 [3]; 8.2 nM) of 0.992, a surviving fraction (E28 [3]; 24.7 nM) of 1 ± 0.085 and a surviving fraction (E28 [3]; 74.1 nM) of 1.04 ± 0.13. For the same compound, the surviving fraction (E28 [3]; 222.2 nM) was 0.944 ± 0.04, the surviving fraction (E28 [3]; 666.7 nM) was 1.054 ± 0.0027 and the surviving fraction (E28 [3]; 2000 nM) was 0.293 ± 0.091. For the same compound, the surviving fraction (E31 [4]; 2.7 nM) was 0.971 ± 0.026, the surviving fraction (E31 [4]; 8.2 nM) was 1.07 ± 0.076 and the surviving fraction (E31 [4]; 24.7 nM) was 0.973 ± 0.047. It also gave a surviving fraction (E31 [4]; 74.1 nM) of 0.943 ± 0.18, a surviving fraction (E31 [4]; 222.2 nM) of 0.958 ± 0.041 and a surviving fraction (E31 [4]; 666.7 nM) of 0.951 ± 0.042. For the same compound, the surviving fraction (E31 [4]; 2000 nM) was 0.448 ± 0.011, the surviving fraction (E34 [5]; 2.7 nM) was 0.95 ± 0.023 and the surviving fraction (E34 [5]; 8.2 nM) was 0.991 ± 0.17. The surviving fraction (E34 [5]; 24.7 nM) was 1 ± 0.015, the surviving fraction (E34 [5]; 74.1 nM) was 0.971 ± 0.024 and the surviving fraction (E34 [5]; 222.2 nM) was 0.979 ± 0.015. For the same compound, the surviving fraction (E34 [5]; 666.7 nM) was 0.87 ± 0.045, the surviving fraction (E34 [5]; 2000 nM) was 0.731 ± 0.13 and the surviving fraction (E57 [6]; 2.7 nM) was 0.99 ± 0.053. It also gave a surviving fraction (E57 [6]; 8.2 nM) of 1.01 ± 0.055, a surviving fraction (E57 [6]; 24.7 nM) of 1.03 ± 0.037 and a surviving fraction (E57 [6]; 74.1 nM) of 1.04 ± 0.012. For the same compound, the surviving fraction (E57 [6]; 222.2 nM) was 0.999 ± 0.013, the surviving fraction (E57 [6]; 666.7 nM) was 1.02 ± 0.033 and the surviving fraction (E57 [6]; 2000 nM) was 0.791 ± 0.17. For the same compound, the surviving fraction (FT3469 [7]; 2.7 nM) was 0.932 ± 0.011, the surviving fraction (FT3469 [7]; 8.2 nM) was 1.01 ± 0.034 and the surviving fraction (FT3469 [7]; 24.7 nM) was 1.04 ± 0.18. It also gave a surviving fraction (FT3469 [7]; 74.1 nM) of 1.09 ± 0.055, a surviving fraction (FT3469 [7]; 222.2 nM) of 0.975 ± 0.045 and a surviving fraction (FT3469 [7]; 666.7 nM) of 0.982 ± 0.02. The surviving fraction (FT3469 [7]; 2000 nM) was 0.775 ± 0.014, the phenotypic distance (E13 [8]; 2.7 nM) was 0.638 ± 0.027 and the phenotypic distance (E13 [8]; 8.2 nM) was 0.674 ± 0.096. It also gave a phenotypic distance (E13 [8]; 24.7 nM) of 0.47 ± 0.16, a phenotypic distance (E13 [8]; 74.1 nM) of 0.494 ± 0.022 and a phenotypic distance (E13 [8]; 222.2 nM) of 0.491 ± 0.29. It also gave a phenotypic distance (E13 [8]; 666.7 nM) of 0.644 ± 0.16, a phenotypic distance (E13 [8]; 2000 nM) of 0.888 ± 0.24 and a phenotypic distance (E21 [9]; 2.7 nM) of 0.833 ± 0.17. For the same compound, the phenotypic distance (E21 [9]; 8.2 nM) was 0.648 ± 0.027, the phenotypic distance (E21 [9]; 24.7 nM) was 0.526 ± 0.4 and the phenotypic distance (E21 [9]; 74.1 nM) was 2.82 ± 3.1. For the same compound, the phenotypic distance (E21 [9]; 222.2 nM) was 0.86 ± 0.57, the phenotypic distance (E21 [9]; 666.7 nM) was 0.927 ± 0.2 and the phenotypic distance (E21 [9]; 2000 nM) was 2.33 ± 0.96. The phenotypic distance (E28 [10]; 2.7 nM) was 0.693 ± 0.21, the phenotypic distance (E28 [10]; 8.2 nM) was 0.629 ± 0.25 and the phenotypic distance (E28 [10]; 24.7 nM) was 0.459 ± 0.0068. For the same compound, the phenotypic distance (E28 [10]; 74.1 nM) was 0.507 ± 0.076, the phenotypic distance (E28 [10]; 222.2 nM) was 1.59 ± 1.6 and the phenotypic distance (E28 [10]; 666.7 nM) was 0.58 ± 0.064. For the same compound, the phenotypic distance (E28 [10]; 2000 nM) was 3.56 ± 0.092, the phenotypic distance (E31 [11]; 2.7 nM) was 0.66 ± 0.099 and the phenotypic distance (E31 [11]; 8.2 nM) was 0.527 ± 0.1. It also gave a phenotypic distance (E31 [11]; 24.7 nM) of 0.585 ± 0.22, a phenotypic distance (E31 [11]; 74.1 nM) of 0.697 ± 0.057 and a phenotypic distance (E31 [11]; 222.2 nM) of 0.744 ± 0.16. The phenotypic distance (E31 [11]; 666.7 nM) was 0.876 ± 0.065, the phenotypic distance (E31 [11]; 2000 nM) was 1.95 ± 0.25 and the phenotypic distance (E34 [12]; 2.7 nM) was 0.787 ± 0.065. For the same compound, the phenotypic distance (E34 [12]; 8.2 nM) was 0.702 ± 0.28, the phenotypic distance (E34 [12]; 24.7 nM) was 0.648 ± 0.067 and the phenotypic distance (E34 [12]; 74.1 nM) was 0.775 ± 0.36. It also gave a phenotypic distance (E34 [12]; 222.2 nM) of 0.511 ± 0.098, a phenotypic distance (E34 [12]; 666.7 nM) of 1.19 ± 0.3 and a phenotypic distance (E34 [12]; 2000 nM) of 1.13 ± 0.095. It also gave a phenotypic distance (E57 [13]; 2.7 nM) of 0.81 ± 0.045, a phenotypic distance (E57 [13]; 8.2 nM) of 0.581 ± 0.15 and a phenotypic distance (E57 [13]; 24.7 nM) of 0.418 ± 0.012. It also gave a phenotypic distance (E57 [13]; 74.1 nM) of 0.557 ± 0.023, a phenotypic distance (E57 [13]; 222.2 nM) of 0.584 ± 0.069 and a phenotypic distance (E57 [13]; 666.7 nM) of 0.739 ± 0.13. It also gave a phenotypic distance (E57 [13]; 2000 nM) of 2.46 ± 0.7, a phenotypic distance (FT3469 [14]; 2.7 nM) of 0.776 ± 0.027 and a phenotypic distance (FT3469 [14]; 8.2 nM) of 0.699 ± 0.17. The phenotypic distance (FT3469 [14]; 24.7 nM) was 2.24 ± 1.8, the phenotypic distance (FT3469 [14]; 74.1 nM) was 1.29 ± 0.23 and the phenotypic distance (FT3469 [14]; 222.2 nM) was 0.569 ± 0.076. The phenotypic distance (FT3469 [14]; 666.7 nM) was 0.6 ± 0.36 and the phenotypic distance (FT3469 [14]; 2000 nM) was 2.12 ± 1.5.
